Measured values published in patent US6750246B1, “C-4 carbonate taxanes” (Bristol-Myers Squibb Company, priority 2000, dated 2004).

Key:
[1] = system: A2780 human ovarian tumor xenograft; experiment: In vivo oral antitumor activity vs Sc A2780; settings: po gavage; for Oral Efficacy vs. Sc A2780 Log Cell Kill: q2d x 5, at optimal or maximum tolerated dose of Table III (mg/kg per administration), log cell kill = (T-C)/(TVDT x 3.32); for Oral Efficacy vs. Sc A2780 (Cures/Treated): q2d x 5, same dose as log cell kill, cure = tumor of 35 mg or less at termination
Description: The experiments were carried out using athymic (“nude”) mice. […] The compound was administered at the dose indicated in Table III, namely, once daily every other day for five treatments (i.e. q2dx5).

tumors in mice = settings: AACR 1999 abstract 1905; cited from earlier work
human or animal models = settings: cited from earlier work; for Oral activity in human or animal models: prior art
[2] = administered orally; quote from WO98/53811; cited from earlier work
human tumor xenografts = experiment: Orally administered paclitaxel against human tumor xenografts; settings: oral; athymic mice or athymic rats

| Compound | Oral Efficacy vs. Sc A2780 Log Cell Kill [1] | Oral Efficacy vs. Sc A2780 (Cures/Treated) [1] | other results |
| --- | --- | --- | --- |
| COC(=O)OC12COC1CC(O)C1(C)C(=O)C(OC(C)=O)C3=C(C)C(OC(=O)C(O)C(NC(=O)CC(C)(C)C)c4ccccc4)CC(O)(C(OC(=O)c4ccccc4)C21)C3(C)C (centres unmarked) [Ic, 3′-N-Neopentylcarbonyl-4-deacetyl-3′-N-debenzoyl-4-O-methoxycarbonyl-paclitaxel] | 3.8 | 0/8 | – |
| COC(=O)OC12COC1CC(O)C1(C)C(=O)C(OC(C)=O)C3=C(C)C(OC(=O)C(O)C(NC(=O)c4ccco4)C(C)(C)C)CC(O)(C(OC(=O)c4ccccc4)C21)C3(C)C (centres unmarked) [Ik, 3′-N-Debenzoyl-3′-N-(2-furoyl)-3′-dephenyl-3′-tert-butyl-4-deacetyl-4-methoxycarbonyl Paclitaxel] | 2.2 | 0/8 | – |
| CC(=O)O[C@H]1C(=O)[C@@]2(C)[C@H]([C@H](OC(=O)c3ccccc3)[C@]34OC(=O)O[C@H]3[C@H](OC(=O)[C@H](O)[C@H](CC(C)C)NC(=O)OC(C)(C)C)C(C)=C1C4(C)C)[C@]1(OC(C)=O)CO[C@@H]1C[C@@H]2O [IDN-5109] | – | – | Oral activity against tumors in mice (tumors in mice): oral activity against tumors in mice |
| COC(=O)OC12COC1CC(O)C1(C)C(=O)C(OC(C)=O)C3=C(C)C(OC(=O)C(O)C(NC(=O)OC(C)(C)C)C(C)C)CC(O)(C(OC(=O)c4ccccc4)C21)C3(C)C (centres unmarked) [Ib, 3′-N-tert-Butyloxycarbonyl-4-deacetyl-3′-dephenyl-3′-N-debenzoyl-3′-isopropyl-4-O-methoxycarbonyl-paclitaxel] | 3.0 | 1/8 | – |
| COC(=O)O[C@@]12CO[C@@H]1C[C@H](O)[C@@]1(C)C(=O)[C@H](OC(C)=O)C3=C(C)[C@@H](OC(=O)[C@H](O)[C@@H](NC(=O)OC(C)(C)C)c4ccccc4)C[C@@](O)([C@@H](OC(=O)c4ccccc4)[C@H]21)C3(C)C [Ig, 4-Deacetyl-3′-N-debenzoyl-3′-N-tertbutoxycarbonyl 4-O-methoxycarbonyl-paclitaxel] | 0.9 | 0/8 | – |
| COC(=O)O[C@@]12COC1C[C@H](O)[C@@]1(C)C(=O)[C@H](OC(C)=O)C3=C(C)[C@@H](OC(=O)[C@H](O)[C@@H](NC(=O)OC(C)(C)C)C(C)(C)C)C[C@@](O)([C@@H](OC(=O)c4ccccc4)C21)C3(C)C (some centres unmarked) [Ia, 3′-tert-Butyl-3′-N-tert-butyloxycarbonyl-4-deacetyl-3′-dephenyl-3′-N-debenzoyl-4-O-methoxycarbonyl-paclitaxel] | 4.4 | 0/8 | – |
| COC(=O)O[C@@]12CO[C@@H]1C[C@H](O)[C@@]1(C)C(=O)[C@H](OC(C)=O)C3=C(C)[C@@H](OC(=O)[C@H](O)[C@@H](NC(=O)CC(C)(C)C)C(C)(C)C)C[C@@](O)([C@@H](OC(=O)c4ccccc4)[C@H]21)C3(C)C [If, 3′-tert-Butyl-4-deacetyl-3′-dephenyl-3′-N-debenzoyl-3′-N-neopentylcarbonyl-4-O-methoxycarbonyl-paclitaxel] | 1.8 | 0/8 | – |
| CC(=O)O[C@@]12CO[C@@H]1C[C@H](O)[C@@]1(C)C(=O)[C@H](O)C3=C(C)[C@@H](OC(=O)[C@H](O)[C@@H](NC(=O)OC(C)(C)C)c4ccccc4)C[C@@](O)([C@@H](OC(=O)c4ccccc4)[C@H]21)C3(C)C [TAXOTERE®, docetaxel] | – | – | Oral activity in human or animal models (human or animal models): no oral activity |
| COC(=O)O[C@@]12CO[C@@H]1C[C@H](O)[C@@]1(C)C(=O)[C@H](OC(C)=O)C3=C(C)[C@@H](OC(=O)[C@H](O)[C@@H](NC(=O)C4CCC4)C(C)(C)C)C[C@@](O)([C@@H](OC(=O)c4ccccc4)[C@H]21)C3(C)C [Ij, 3′-N-Debenzoyl-3′-N-cyclobutylcarbonyl-3′-dephenyl-3′-tert-butyl-4-deacetyl-4-methoxycarbonyl Paclitaxel] | 2.1 | 0/8 | – |
| 3′-N-Cyclobutyl-4-deacetyl-3′-N-debenzoyl-4-O-methoxycarbonyi-paciitaxel [Id] | 4.1 | 0/8 | – |
| CCCCOC(=O)NC(c1ccccc1)C(O)C(=O)OC1CC2(O)C(OC(=O)c3ccccc3)C3C4(OC(=O)OC)COC4CC(O)C3(C)C(=O)C(OC(C)=O)C(=C1C)C2(C)C (centres unmarked) [Ih, 4-Deacetyl-3′-N-debenzoyl-3′-N-nbutoxycarbonyl-4-O-methoxycarbonyl-paclitaxel] | 1.0 | 1/8 | – |
| COC(=O)OC12COC1CC(O)C1(C)C(=O)C(OC(C)=O)C3=C(C)C(OC(=O)C(O)C(NC(=O)OC4CCCCC4)C(C)(C)C)CC(O)(C(OC(=O)c4ccccc4)C21)C3(C)C (centres unmarked) [Ie, 3′-tert-Butyl-3′-N-cyclohexyloxycarbonyl-4-deacetyl-3′-dephenyl-3′-N-debenzoyl-4-O-methoxycarbonyl-paclitaxel] | 1.5 | 0/8 | – |
| CC(=O)O[C@H]1C(=O)[C@@]2(C)[C@H]([C@H](OC(=O)c3ccccc3)[C@]3(O)C[C@H](OC(=O)[C@H](O)[C@@H](NC(=O)c4ccccc4)c4ccccc4)C(C)=C1C3(C)C)[C@]1(OC(C)=O)CO[C@@H]1C[C@@H]2O [paclitaxel] | – | – | Oral absorption [2]: less than 1%; Activity of orally administered paclitaxel against human tumor xenografts (human tumor xenografts): unsuccessful; Antitumor activity on oral administration (human or animal models; oral, up to 160 mg/kg/day, Suffness et al.): no evidence of antitumor activity; Oral activity in human or animal models (human or animal models): no oral activity |
